Data as given in PubChem BioAssay (NCI).
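A five-concentration, 48-hour dose response in 96-well plates underlies each endpoint, interpolated linearly between surrounding concentrations. TGI: concentration producing complete growth inhibition.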

Key:
Test in all cases: DTP human tumour cell line panel, 48 h
SNB-75 CNS = test system: SNB-75 CNS
DLD-1 colon = test system: DLD-1 colon
SR leukemia = test system: SR leukemia
786-0 renal = test system: 786-0 renal
HCT-15 colon = test system: HCT-15 colon
HCC-2998 colon = test system: HCC-2998 colon
ACHN renal = test system: ACHN renal
A549 NSCLC = test system: A549 NSCLC
M14 melanoma = test system: M14 melanoma
OVCAR-3 ovarian = test system: OVCAR-3 ovarian
EKVX NSCLC = test system: EKVX NSCLC
NCI-H460 lung = test system: NCI-H460 lung
K-562 leukemia = test system: K-562 leukemia
OVCAR-4 ovarian = test system: OVCAR-4 ovarian
RPMI-8226 leukemia = test system: RPMI-8226 leukemia
SK-MEL-2 melanoma = test system: SK-MEL-2 melanoma
HOP-92 NSCLC = test system: HOP-92 NSCLC
CCRF-CEM leukemia = test system: CCRF-CEM leukemia
HOP-18 NSCLC = test system: HOP-18 NSCLC
DMS 114 small cell lung = test system: DMS 114 small cell lung
OVCAR-8 ovarian = test system: OVCAR-8 ovarian
XF 498 CNS = test system: XF 498 CNS
CAKI-1 renal = test system: CAKI-1 renal
MALME-3M melanoma = test system: MALME-3M melanoma
SNB-78 CNS = test system: SNB-78 CNS
OVCAR-5 ovarian = test system: OVCAR-5 ovarian
LXFL 529 NSCLC = test system: LXFL 529 NSCLC
UACC-62 melanoma = test system: UACC-62 melanoma
HCT-116 colon = test system: HCT-116 colon
UO-31 renal = test system: UO-31 renal
COLO 205 colon = test system: COLO 205 colon
SF-539 CNS = test system: SF-539 CNS
HT29 colon = test system: HT29 colon
SF-268 CNS = test system: SF-268 CNS
SNB-19 CNS = test system: SNB-19 CNS
LOX IMVI melanoma = test system: LOX IMVI melanoma
U251 CNS = test system: U251 CNS
SK-MEL-28 melanoma = test system: SK-MEL-28 melanoma
SF-295 CNS = test system: SF-295 CNS
M19-MEL melanoma = test system: M19-MEL melanoma
HOP-62 NSCLC = test system: HOP-62 NSCLC
TK-10 renal = test system: TK-10 renal
KM20L2 colon = test system: KM20L2 colon
SW-620 colon = test system: SW-620 colon
HL-60(TB) leukemia = test system: HL-60(TB) leukemia
KM12 colon = test system: KM12 colon
IGROV1 ovarian = test system: IGROV1 ovarian
SK-OV-3 ovarian = test system: SK-OV-3 ovarian
NCI-H23 lung = test system: NCI-H23 lung
MOLT-4 leukemia = test system: MOLT-4 leukemia
UACC-257 melanoma = test system: UACC-257 melanoma
NCI-H226 lung = test system: NCI-H226 lung
SK-MEL-5 melanoma = test system: SK-MEL-5 melanoma
SN12C renal = test system: SN12C renal
RXF 393 renal = test system: RXF 393 renal
DMS 273 small cell lung = test system: DMS 273 small cell lung

`CP1(=O)CCCCC1` was tested, and the TGI (SNB-75 CNS) was greater than 100 µM, the TGI (DLD-1 colon) was greater than 100 µM and the TGI (SR leukemia) was greater than 100 µM. It also gave a TGI (786-0 renal) greater than 100 µM, a TGI (HCT-15 colon) greater than 100 µM and a TGI (HCC-2998 colon) greater than 100 µM. It also gave a TGI (ACHN renal) greater than 100 µM, a TGI (A549 NSCLC) greater than 100 µM and a TGI (M14 melanoma) greater than 100 µM. For the same compound, the TGI (OVCAR-3 ovarian) was greater than 100 µM, the TGI (EKVX NSCLC) was greater than 100 µM and the TGI (NCI-H460 lung) was greater than 100 µM. The TGI (K-562 leukemia) was greater than 100 µM, the TGI (OVCAR-4 ovarian) was greater than 100 µM and the TGI (RPMI-8226 leukemia) was greater than 100 µM. The TGI (SK-MEL-2 melanoma) was greater than 100 µM, the TGI (HOP-92 NSCLC) was greater than 100 µM and the TGI (CCRF-CEM leukemia) was greater than 100 µM. It also gave a TGI (HOP-18 NSCLC) greater than 100 µM, a TGI (DMS 114 small cell lung) greater than 100 µM and a TGI (OVCAR-8 ovarian) greater than 100 µM. The TGI (XF 498 CNS) was greater than 100 µM, the TGI (CAKI-1 renal) was greater than 100 µM and the TGI (MALME-3M melanoma) was greater than 100 µM. For the same compound, the TGI (SNB-78 CNS) was greater than 100 µM, the TGI (OVCAR-5 ovarian) was greater than 100 µM and the TGI (LXFL 529 NSCLC) was greater than 100 µM. The TGI (UACC-62 melanoma) was greater than 100 µM, the TGI (HCT-116 colon) was greater than 100 µM and the TGI (UO-31 renal) was greater than 100 µM. The TGI (COLO 205 colon) was greater than 100 µM, the TGI (SF-539 CNS) was greater than 100 µM and the TGI (HT29 colon) was greater than 100 µM. For the same compound, the TGI (SF-268 CNS) was greater than 100 µM, the TGI (SNB-19 CNS) was greater than 100 µM and the TGI (LOX IMVI melanoma) was greater than 100 µM. The TGI (U251 CNS) was greater than 100 µM, the TGI (SK-MEL-28 melanoma) was greater than 100 µM and the TGI (SF-295 CNS) was greater than 100 µM. The TGI (M19-MEL melanoma) was greater than 100 µM, the TGI (HOP-62 NSCLC) was greater than 100 µM and the TGI (TK-10 renal) was greater than 100 µM. It also gave a TGI (KM20L2 colon) greater than 100 µM, a TGI (SW-620 colon) greater than 100 µM and a TGI (HL-60(TB) leukemia) greater than 100 µM. The TGI (KM12 colon) was greater than 100 µM, the TGI (IGROV1 ovarian) was greater than 100 µM and the TGI (SK-OV-3 ovarian) was greater than 100 µM. The TGI (NCI-H23 lung) was greater than 100 µM, the TGI (MOLT-4 leukemia) was greater than 100 µM and the TGI (UACC-257 melanoma) was greater than 100 µM. For the same compound, the TGI (NCI-H226 lung) was greater than 100 µM, the TGI (SK-MEL-5 melanoma) was greater than 100 µM and the TGI (SN12C renal) was greater than 100 µM. It also gave a TGI (RXF 393 renal) greater than 100 µM and a TGI (DMS 273 small cell lung) greater than 100 µM.

Work on `COC(=O)/C(C)=C(/CCC1(C)OCCO1)O[Si](C)(C)C` yielded a TGI (SNB-75 CNS) of 71.7 µM, a TGI (DLD-1 colon) greater than 100 µM and a TGI (786-0 renal) greater than 100 µM. The TGI (HCT-15 colon) was greater than 100 µM, the TGI (HCC-2998 colon) was greater than 100 µM and the TGI (ACHN renal) was greater than 100 µM. For the same compound, the TGI (A549 NSCLC) was greater than 100 µM, the TGI (M14 melanoma) was greater than 100 µM and the TGI (OVCAR-3 ovarian) was greater than 100 µM. It also gave a TGI (EKVX NSCLC) greater than 100 µM, a TGI (NCI-H460 lung) greater than 100 µM and a TGI (K-562 leukemia) greater than 100 µM. The TGI (OVCAR-4 ovarian) was greater than 100 µM, the TGI (RPMI-8226 leukemia) was greater than 100 µM and the TGI (SK-MEL-2 melanoma) was greater than 100 µM. The TGI (HOP-92 NSCLC) was greater than 100 µM, the TGI (CCRF-CEM leukemia) was greater than 100 µM and the TGI (HOP-18 NSCLC) was greater than 100 µM. For the same compound, the TGI (DMS 114 small cell lung) was greater than 100 µM, the TGI (OVCAR-8 ovarian) was greater than 100 µM and the TGI (XF 498 CNS) was greater than 100 µM. It also gave a TGI (CAKI-1 renal) greater than 100 µM, a TGI (MALME-3M melanoma) greater than 100 µM and a TGI (SNB-78 CNS) greater than 100 µM. For the same compound, the TGI (OVCAR-5 ovarian) was greater than 100 µM, the TGI (LXFL 529 NSCLC) was greater than 100 µM and the TGI (UACC-62 melanoma) was greater than 100 µM. The TGI (HCT-116 colon) was greater than 100 µM, the TGI (UO-31 renal) was greater than 100 µM and the TGI (COLO 205 colon) was greater than 100 µM. The TGI (SF-539 CNS) was greater than 100 µM, the TGI (HT29 colon) was greater than 100 µM and the TGI (SF-268 CNS) was greater than 100 µM. It also gave a TGI (SNB-19 CNS) greater than 100 µM, a TGI (LOX IMVI melanoma) greater than 100 µM and a TGI (U251 CNS) greater than 100 µM. The TGI (SF-295 CNS) was greater than 100 µM, the TGI (M19-MEL melanoma) was greater than 100 µM and the TGI (HOP-62 NSCLC) was greater than 100 µM. It also gave a TGI (TK-10 renal) greater than 100 µM, a TGI (KM20L2 colon) greater than 100 µM and a TGI (SW-620 colon) greater than 100 µM. For the same compound, the TGI (HL-60(TB) leukemia) was greater than 100 µM, the TGI (KM12 colon) was greater than 100 µM and the TGI (IGROV1 ovarian) was greater than 100 µM. For the same compound, the TGI (SK-OV-3 ovarian) was greater than 100 µM, the TGI (NCI-H23 lung) was greater than 100 µM and the TGI (MOLT-4 leukemia) was greater than 100 µM. The TGI (UACC-257 melanoma) was greater than 100 µM, the TGI (SK-MEL-5 melanoma) was greater than 100 µM and the TGI (SN12C renal) was greater than 100 µM. It also gave a TGI (RXF 393 renal) greater than 100 µM and a TGI (DMS 273 small cell lung) greater than 100 µM.
